According to ChEMBL document CHEMBL1201862, “PubChem BioAssay data set” (2004):
Calls of active or inactive are those of the source. *1 amine or outer side, *2 acyl side, *3 side chain or, on linkers, in order; H or OH if unused. Where a SMILES comes first, the peptide text is derived from it. Bridges are numbered along the chain shown (N, C = ends). [ ]: non-standard residue; d: D form. ξ: configuration not given here. X1 = CC[C@H](CCC[C@@H](O)[C@@H](C)C(=O)O[C@H](C)[C@@H](C)C/C=C(C)/C(=C\C(=O)[*:1])OC)O[*:2]; NMeξIle = CC[C@H](C)C(NC)C(=O)O; NMeV = CN[C@H](C(=O)O)C(C)C; NMeS = CN[C@@H](CO)C(=O)O

Tests used:
HeLa = test: HeLa cell cytotoxicity, dose response, cytotoxicity control, ATP luminescence, cherry-pick samples (AID 687004); type: functional, cell-based; conditions: Homo sapiens
A549 = test: A549 cell toxicity, dose response, cytotoxicity control, plate reader, cherry-pick samples (AID 687028); type: functional, cell-based; conditions: Homo sapiens
[1] = Luminescence Cell-Based Dose Response HTS to Identify Activators of Luciferase Translation or Activity in H4 […] Cells. [Related pubchem assays: 1829 (Project Summary), 1814 (Primary HTS)]; type: functional
H4 = test: Luminescence Cell-Based Dose Response HTS to Identify Activators of 5'UTR Stem-Loop Driven Prion Protein mRNA Translation in H4 Neuroglioblastoma Cells. [Related pubchem assays: 1829 (Project Summary), 1814 (Primary HTS)]; type: functional; conditions: Homo sapiens
Caspase-6 [2] = target: T1, Caspase-6 (Homo sapiens, UniProt P55212); test: human caspase-6 inhibitors, dose response, biochemical, VEID-R110 fluorescence, cherry-pick (AID 720632)
T1 sequence (P55212 whole entry): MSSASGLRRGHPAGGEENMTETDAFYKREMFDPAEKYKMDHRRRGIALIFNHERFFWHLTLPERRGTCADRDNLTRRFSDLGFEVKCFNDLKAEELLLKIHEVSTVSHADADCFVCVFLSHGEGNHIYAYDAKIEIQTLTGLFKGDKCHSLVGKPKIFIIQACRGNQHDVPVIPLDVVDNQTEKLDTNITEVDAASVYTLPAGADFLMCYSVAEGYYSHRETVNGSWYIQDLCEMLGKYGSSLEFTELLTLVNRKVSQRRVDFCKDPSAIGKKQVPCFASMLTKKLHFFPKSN

INS1 = test: beta cell apoptosis inhibitors, cytokine rescue, dose response, luminescence, retest (AID 449756); type: functional, cell-based; conditions: Rattus norvegicus;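 further: cell death triggered by IL-1 beta plus TNF-alpha plus IFN-gamma mixture; protective hits raise ATP signal compared with cytokine alone wells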
[3] = Luminescence Cell-Based Dose Response to Identify Activators of Luciferase Translation or Activity in H4-C Neuroglioblastoma Cells. [Related pubchem assays: 1829 (Project Summary), 1814 (Primary HTS)]; type: functional
[4] = Luminescence Cell-Based Dose Confirmation to Identify Activators of 5'UTR Stem-Loop Driven Alpha-Synuclein mRNA Translation in H4 Neuroglioblastoma Cells. [Related pubchem assays: 1829 (Project Summary), 1814 (Primary HTS)]; type: functional
Caspase-7 = Caspase-7 (Homo sapiens, UniProt P55210); test: human caspase-7 inhibitors, dose response, selectivity assay for caspase-6 inhibitor project, biochemical, DEVD-R110 fluorescence, cherry-pick (AID 743295)
Caspase-7, sequence (P55210 24-198 limits assumed): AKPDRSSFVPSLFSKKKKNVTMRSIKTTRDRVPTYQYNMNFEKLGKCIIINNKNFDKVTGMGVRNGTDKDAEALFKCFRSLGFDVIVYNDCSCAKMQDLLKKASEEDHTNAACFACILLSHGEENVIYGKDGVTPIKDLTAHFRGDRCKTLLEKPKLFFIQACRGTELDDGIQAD
Caspase-7, sequence (P55210 207-303 limits assumed): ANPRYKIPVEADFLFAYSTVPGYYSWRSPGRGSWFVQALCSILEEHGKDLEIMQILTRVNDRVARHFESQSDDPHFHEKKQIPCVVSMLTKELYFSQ

Caspase-6 [5] = target: T1, Caspase-6; test: human caspase-6 inhibitors, dose response, biochemical, VEID-R110 fluorescence, dry powder retest (AID 743332)
[6] = Luminescence Cell-Based Dose Response to Identify Activators of 5'UTR Stem-Loop Driven Prion Protein mRNA Translation in H4-C Neuroglioblastoma Cells. [Related pubchem assays: 1829 (Project Summary), 1814 (Primary HTS)]; type: functional
Paired box protein Pax-8 = Paired box protein Pax-8 (Homo sapiens, UniProt Q06710); test: inhibitors of PAX8-driven TPO luciferase reporter, dose response, RMG-I cells, cherry-pick (AID 687027); type: functional, cell-based;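 further: luciferase reporter driven by Pax8 target thyroperoxidase promoter measured by SteadyGlo luminescence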
Paired box protein Pax-8, sequence (Q06710 whole entry): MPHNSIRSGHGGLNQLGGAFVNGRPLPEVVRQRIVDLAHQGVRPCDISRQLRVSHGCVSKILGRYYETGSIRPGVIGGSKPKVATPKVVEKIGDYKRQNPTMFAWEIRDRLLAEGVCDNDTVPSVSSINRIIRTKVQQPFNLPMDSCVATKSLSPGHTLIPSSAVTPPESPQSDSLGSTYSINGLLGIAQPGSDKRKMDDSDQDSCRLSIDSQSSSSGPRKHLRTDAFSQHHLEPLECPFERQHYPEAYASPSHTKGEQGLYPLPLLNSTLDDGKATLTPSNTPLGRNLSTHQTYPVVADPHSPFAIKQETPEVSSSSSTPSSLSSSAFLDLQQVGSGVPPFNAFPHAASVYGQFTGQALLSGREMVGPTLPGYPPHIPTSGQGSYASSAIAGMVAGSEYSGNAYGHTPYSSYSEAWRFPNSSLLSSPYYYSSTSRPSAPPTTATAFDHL

Protein skinhead-1 = target: T2, Protein skinhead-1 (Caenorhabditis elegans, UniProt P34707); type: functional
T2 sequence (P34707 whole entry): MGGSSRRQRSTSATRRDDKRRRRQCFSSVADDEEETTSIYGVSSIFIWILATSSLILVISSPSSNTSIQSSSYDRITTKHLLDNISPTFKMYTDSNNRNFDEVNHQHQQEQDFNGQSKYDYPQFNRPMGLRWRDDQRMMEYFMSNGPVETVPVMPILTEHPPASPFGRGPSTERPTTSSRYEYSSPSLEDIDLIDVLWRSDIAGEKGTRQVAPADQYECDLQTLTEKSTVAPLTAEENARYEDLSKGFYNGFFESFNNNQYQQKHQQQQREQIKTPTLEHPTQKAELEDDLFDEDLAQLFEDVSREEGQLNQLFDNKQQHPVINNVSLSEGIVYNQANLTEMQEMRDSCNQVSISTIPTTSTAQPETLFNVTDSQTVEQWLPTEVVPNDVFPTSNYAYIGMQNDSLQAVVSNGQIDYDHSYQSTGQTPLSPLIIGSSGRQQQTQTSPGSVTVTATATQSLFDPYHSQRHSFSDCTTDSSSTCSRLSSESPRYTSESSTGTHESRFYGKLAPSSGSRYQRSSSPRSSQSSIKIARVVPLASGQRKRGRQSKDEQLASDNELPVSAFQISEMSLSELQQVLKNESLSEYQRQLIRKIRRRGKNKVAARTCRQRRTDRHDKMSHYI

[7] = control 3'UTR Renilla luciferase suppression, dose response, counter-screen for Shn3 inhibitor project, cell-based, Clone20-Shn3RL, cherry-picked (AID 624133); type: functional
Galanin receptor type 3 = Galanin receptor type 3 (Homo sapiens, UniProt O60755); test: Fluorescence-based cell-based primary high throughput dose response assay to identify antagonists of the Galanin Receptor 3 (GalR3).; type: functional
Galanin receptor type 3, sequence (O60755 whole entry): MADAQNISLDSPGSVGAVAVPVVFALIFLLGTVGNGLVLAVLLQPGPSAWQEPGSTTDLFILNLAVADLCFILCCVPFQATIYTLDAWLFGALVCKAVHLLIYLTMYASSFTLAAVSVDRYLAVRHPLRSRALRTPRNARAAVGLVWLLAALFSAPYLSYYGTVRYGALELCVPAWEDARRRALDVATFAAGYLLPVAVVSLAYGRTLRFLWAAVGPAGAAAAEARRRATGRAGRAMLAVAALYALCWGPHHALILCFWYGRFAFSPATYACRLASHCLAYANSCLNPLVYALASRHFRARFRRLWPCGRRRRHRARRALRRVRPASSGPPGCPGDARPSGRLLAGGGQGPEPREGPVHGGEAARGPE

[8] = Shn3 3'UTR reporter inhibitors, dose response, cell-based, Clone20 osteoblasts, firefly luciferase, cherry-picked (AID 624132); type: functional;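 further: firefly luciferase luminescence from reporter carrying the Shn3 3'UTR in osteoblasts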
cells = type: functional, cell-based; conditions: HEK-CNG
[9] = cytotoxicity in HEK-293T cells, dose response, cytotoxicity control for TCR NF-kB inhibitor project, luminescence, T-cell screen hits (AID 489026); type: functional, cell-based;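 further: cells exposed to compound about 14 hours before the viability readout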
[10] = HEK293T cell cytotoxicity, dose response, cytotoxicity control for HIV Vif inhibitor project, cherry-picks (AID 652208); type: functional, cell-based
[11] = cytotoxicity in ldlA[mSR-BI] CHO cells, dose response, cytotoxicity control for SR-BI HDL uptake inhibitor project, cell-based, CellTiter-Glo, 24 h, powder samples, set 7 (AID 624026); type: functional
[12] = target: T3, Scavenger receptor class B member 1 (Mus musculus, UniProt Q61009); test: inhibitors of SR-BI dependent HDL uptake, dose response, ldlA[mSR-BI] CHO cells, fluorescence plate reader, dry powder, set 9 (AID 623880); type: functional, cell-based
T3 sequence (Q61009 whole entry): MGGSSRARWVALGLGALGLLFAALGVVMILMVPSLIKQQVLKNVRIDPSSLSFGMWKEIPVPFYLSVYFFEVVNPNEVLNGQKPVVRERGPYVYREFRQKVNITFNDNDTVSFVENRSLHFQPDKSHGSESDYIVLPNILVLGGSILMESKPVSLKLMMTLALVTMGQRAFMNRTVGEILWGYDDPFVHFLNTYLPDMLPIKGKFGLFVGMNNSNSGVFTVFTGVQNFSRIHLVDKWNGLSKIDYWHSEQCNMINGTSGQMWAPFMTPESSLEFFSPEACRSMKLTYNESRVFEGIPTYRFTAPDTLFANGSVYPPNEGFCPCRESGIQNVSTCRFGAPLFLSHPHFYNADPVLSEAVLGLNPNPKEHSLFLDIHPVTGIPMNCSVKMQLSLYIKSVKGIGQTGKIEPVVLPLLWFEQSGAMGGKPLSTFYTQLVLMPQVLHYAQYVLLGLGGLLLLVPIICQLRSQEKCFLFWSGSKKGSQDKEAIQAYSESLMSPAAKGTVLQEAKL

[13] = target: T3, Scavenger receptor class B member 1; test: inhibitors of SR-BI-mediated HDL uptake, dose response, cell-based, ldlA[mSR-BI] CHO, DiI fluorescence, dry powder, set 10 (AID 624029); type: functional
[14] = cytotoxicity in HeLa cells, dose response, cytotoxicity control, cell-based, 24 h, dry powder, set 2 (AID 651774); type: functional
[15] = target: T4, Trace amine-associated receptor 1 (Homo sapiens, UniProt Q96RJ0); test: Fluorescence-based cell-based high throughput dose response assay to identify antagonists of the human trace amine associated receptor 1 (TAAR1).; type: functional
T4 sequence (Q96RJ0 whole entry): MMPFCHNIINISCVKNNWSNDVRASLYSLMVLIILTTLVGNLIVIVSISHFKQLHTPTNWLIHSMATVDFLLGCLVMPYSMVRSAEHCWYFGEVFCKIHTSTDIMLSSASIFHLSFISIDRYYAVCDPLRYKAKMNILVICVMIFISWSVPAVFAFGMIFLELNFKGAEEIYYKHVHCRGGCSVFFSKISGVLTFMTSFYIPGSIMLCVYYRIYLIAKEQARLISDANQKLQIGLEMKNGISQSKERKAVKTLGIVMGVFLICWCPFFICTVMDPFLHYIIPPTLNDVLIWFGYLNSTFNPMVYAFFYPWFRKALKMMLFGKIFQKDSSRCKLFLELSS

[16] = target: T4, Trace amine-associated receptor 1; test: Counterscreen for antagonists of the human trace amine associated receptor 1 (hTAAR1): Fluorescence-based cell-based high throughput dose response assay to identify TAAR1 Agonists.; type: functional
[17] = inhibitors of SNCA 5'UTR-driven reporter translation, confirmation, H4 neuroglioma cells, luminescence (AID 1988); type: functional, cell-based
[18] = Luminescence Cell-Based Dose Response HTS to Identify Inhibitors of 5'UTR Stem-Loop Driven Prion Protein mRNA Translation in H4 Neuroglioblastoma Cells. [Related pubchem assays: 1827 (Project Summary), 1813 (Primary HTS)]; type: functional
[19] = Counterscreen for […] of the human trace amine associated receptor 1 (TAAR1): Fluorescence-based cell-based high throughput dose response assay to identify nonselective Ga16 agonists.; type: functional
[20] = Counterscreen for antagonists of the human trace amine associated receptor 1 (hTAAR1): Fluorescence-based cell-based high throughput dose response assay to identify nonselective Ga16 antagonists.; type: functional
[21] = inhibitors of firefly luciferase expression or activity, dose response, H4 neuroglioma cells, luminescence (AID 1990); type: functional, cell-based
BJ [22] = test: cytotoxicity toward BJ-TERT-LT-ST fibroblasts, dose response, cell-based, RAS-independent, luminescence (AID 1935); type: functional; conditions: Homo sapiens;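 further: BJ fibroblasts immortalized with TERT plus LT and ST oncogenes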
BJ [23] = test: cytotoxicity toward Ras-transformed BJeLR fibroblasts, dose response, cell-based, alamar blue fluorescence, cherrypicked samples (AID 2631); type: functional; conditions: Homo sapiens;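 further: confirmatory dose-response assay in RAS-dependent BJ fibroblasts engineered with TERT, LT and ST, with cytotoxicity read by fluorescence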
[24] = Luminescence Cell-Based Dose Retest to Confirm Inhibitors of Cancer Stem Cells. [Related pubchem assays (depositor defined):AID2717, AID2721]; type: functional; conditions: Homo sapiens
[25] = Counterscreen for activators of the function of SWI/SNF related, matrix associated, actin dependent regulator of chromatin, subfamily a, member 2 (SMARCA2, BRM): Luminescence-based cell-based high throughput dose response assay to identify non-selective compounds using the VP16 reporter assay.; type: functional
BJ [26] = test: cytotoxicity toward BJ-TERT fibroblasts, dose response, cell-based, RAS-independent, luminescence (AID 1933); type: functional; conditions: Homo sapiens
BJ [27] = test: cells; type: functional, cell-based; conditions: Homo sapiens
[28] = target: SWI/SNF-related matrix-associated actin-dependent regulator of chromatin subfamily A member 2 (Homo sapiens, UniProt P51531); test: Luminescence-based cell-based high throughput dose response assay to identify activators of the function of SWI/SNF related, matrix associated, actin dependent regulator of chromatin, subfamily a, member 2 (SMARCA2, BRM).; type: functional
SWI/SNF-related matrix-associated actin-dependent regulator of chromatin subfamily A member 2, sequence (P51531 whole entry): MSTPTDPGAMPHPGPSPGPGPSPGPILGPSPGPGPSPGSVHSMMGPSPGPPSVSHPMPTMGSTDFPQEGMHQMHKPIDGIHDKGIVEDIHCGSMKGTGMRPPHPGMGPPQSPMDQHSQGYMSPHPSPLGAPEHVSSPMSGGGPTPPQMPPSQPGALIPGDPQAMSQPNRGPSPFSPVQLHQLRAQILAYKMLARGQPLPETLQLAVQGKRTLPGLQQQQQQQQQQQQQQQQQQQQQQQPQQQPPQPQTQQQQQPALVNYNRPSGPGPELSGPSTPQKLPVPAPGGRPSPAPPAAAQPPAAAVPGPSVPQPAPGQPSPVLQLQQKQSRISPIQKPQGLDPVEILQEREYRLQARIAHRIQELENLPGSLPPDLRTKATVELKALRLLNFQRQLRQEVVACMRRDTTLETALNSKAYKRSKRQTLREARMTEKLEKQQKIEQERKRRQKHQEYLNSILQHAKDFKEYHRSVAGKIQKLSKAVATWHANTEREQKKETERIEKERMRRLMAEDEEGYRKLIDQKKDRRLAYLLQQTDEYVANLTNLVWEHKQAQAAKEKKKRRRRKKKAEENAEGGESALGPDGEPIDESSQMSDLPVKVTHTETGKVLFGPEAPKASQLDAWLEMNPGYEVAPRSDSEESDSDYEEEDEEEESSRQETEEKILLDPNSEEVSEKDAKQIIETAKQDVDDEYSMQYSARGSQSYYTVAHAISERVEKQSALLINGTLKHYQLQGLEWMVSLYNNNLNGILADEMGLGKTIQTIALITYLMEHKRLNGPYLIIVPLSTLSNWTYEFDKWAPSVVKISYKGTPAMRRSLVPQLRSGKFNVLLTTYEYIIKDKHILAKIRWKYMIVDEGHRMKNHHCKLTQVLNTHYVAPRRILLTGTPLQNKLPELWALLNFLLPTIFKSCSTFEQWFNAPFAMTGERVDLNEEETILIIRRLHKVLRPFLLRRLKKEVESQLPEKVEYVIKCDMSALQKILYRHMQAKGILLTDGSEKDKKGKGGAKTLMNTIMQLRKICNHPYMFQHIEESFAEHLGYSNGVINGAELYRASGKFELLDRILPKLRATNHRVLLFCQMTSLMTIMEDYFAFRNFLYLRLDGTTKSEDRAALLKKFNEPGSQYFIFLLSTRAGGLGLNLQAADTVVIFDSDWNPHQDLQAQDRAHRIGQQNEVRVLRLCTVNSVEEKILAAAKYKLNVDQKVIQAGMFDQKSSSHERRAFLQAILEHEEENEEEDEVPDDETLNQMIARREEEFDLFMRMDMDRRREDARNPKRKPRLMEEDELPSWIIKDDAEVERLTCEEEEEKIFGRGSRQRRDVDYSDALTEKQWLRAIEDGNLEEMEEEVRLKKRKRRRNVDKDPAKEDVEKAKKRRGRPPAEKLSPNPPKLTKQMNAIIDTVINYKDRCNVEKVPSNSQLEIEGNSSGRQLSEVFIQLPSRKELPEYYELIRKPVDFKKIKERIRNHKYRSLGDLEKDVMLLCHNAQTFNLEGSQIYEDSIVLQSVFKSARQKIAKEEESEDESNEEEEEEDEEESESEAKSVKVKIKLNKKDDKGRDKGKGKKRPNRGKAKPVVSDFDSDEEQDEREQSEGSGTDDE

[29] = cytotoxicity toward DRD oncogenic fibroblasts, dose response, cell-based, non-viral oncogenic, luminescence (AID 1934); type: functional; conditions: Homo sapiens
[30] = target: Heat shock protein HSP 90-alpha (Homo sapiens, UniProt P07900); type: functional, organism-based

COc1ccc(C(=O)NC(=S)Nc2ccccc2N2CCOCC2)cc1[N+](=O)[O-]
AC50 (HeLa): > 52 µM (inactive)

COc1ccc(S(=O)(=O)Nc2ccc3c(c2)C(=O)N([C@@H](C)CO)C[C@H](C)[C@H](CN(C)C(=O)Nc2ccc(C(F)(F)F)cc2)OCCCC[C@H](C)O3)cc1
AC50 (A549): 24.9 µM (active)

[O-][n+]1onc2c1CCc1c-2nn(-c2ccccc2Cl)[n+]1[O-]
EC50 [1]: < 100 nM (inconclusive)
EC50 (H4): > 120 µM (not active)
AC50 (Caspase-6 [2]): 651 nM (active)
AC50 (INS1): 6.94 µM (active)
EC50 [3]: 1.41 µM (active)
EC50 [4]: 766 nM (active)
AC50 (Caspase-7): > 70 µM (inactive)
AC50 (Caspase-6 [5]): 4.66 µM (active)
EC50 [6]: > 12 µM (not active)

CC[C@@H]1CCC[C@@H](O)[C@@H](C)C(=O)O[C@H](C)[C@@H](C)C/C=C(C)/C(OC)=C\C(=O)N(C)C([C@@H](C)CC)C(=O)N(C)[C@@H](C(C)C)C(=O)N(C)[C@@H](COC)C(=O)N2CCC[C@H]2C(=O)N(C)[C@@H](C(C)C)C(=O)N2CCC[C@H]2C(=O)O1 (stereo not given in full) ([NMeξIle][NMeV][NMeS](Me)P[NMeV]P; linker N-C via X1)
AC50 (Paired box protein Pax-8): < 260 nM (active)
IC50 (Protein skinhead-1): 57.6 µM (inactive)
AC50 [7]: 317 nM (active)
IC50 (Galanin receptor type 3): 17.1 nM (active)
AC50 [8]: < 260 nM (active)
EC50 (cells): > 29.9 µM (inactive)

CCCOCCOC(=O)c1[nH]c2c(c1C)C(=O)CC(c1cc(OC)ccc1OC)C2 (stereo not given)
IC50 [9]: > 80 µM (inactive)
AC50 [10]: > 52 µM (inactive)

CC.CCCCCCC1CCC/C1=N\NC(N)=S (stereo not given)
AC50 [11]: 2.08 µM (active)
AC50 [12]: 7.37 nM (active)
AC50 [13]: 5 nM (active)

CCn1nnnc1NC(=O)c1ccc(N2CCCC2)cc1
AC50 [14]: 19.7 µM (active)

Cc1ccccc1N(C(=O)c1snc(C(N)=O)c1N)C(C(=O)NC1CCCCC1)c1ccc(O)cc1 (stereo not given)
IC50 [15]: 3.16 µM (active)
EC50 [16]: > 29.9 µM (inactive)
EC50 [17]: 77.7 µM (active)
EC50 [18]: > 120 µM (not active)
EC50 [19]: > 29.9 µM (inactive)
IC50 [20]: > 29.9 µM (inactive)
EC50 [21]: 12.8 µM (active)

O=C1C=C(c2cccs2)C[C@H](c2ccccc2)[C@H]1n1nnc([N+](=O)[O-])n1
EC50 (BJ [22]): 3.85 µM (inconclusive)
EC50 (BJ [23]): 242 nM (active)
AC50 (INS1): 4.33 µM (active)
AC50 [24]: 835 nM (active)
EC50 [25]: > 91.2 µM (inactive)
EC50 (BJ [26]): 10.3 µM (inconclusive)
EC50 (BJ [27]): 9.02 µM (inconclusive)
EC50 [28]: > 91.2 µM (inactive)
EC50 [29]: 5.51 µM (inconclusive)
AC50 [30]: 7.95 µM (active)
